US8952033B2, “4-anilinofuro[2,3-b]quinoline derivatives, their preparation processes, and pharmaceutical compositions comprising the same” (Kaohsiung Medical University, priority 2011, dated 2015)
Converted amounts (≈) assume the structure as drawn. Read-outs that look alike come from different tables or passages of the source. Marks after values point to notes of the source that are not given here.

Experiments:
[1] = Determination of solubility in water; assay type: physicochemical; conditions: for Solubility in water: 25±0.1° C., stirred overnight, UV-VIS
Method: Determination of solubility in water was conducted substantially according to the method as described in Vougogiannopoulou, K. et al. (2008), J. Med. Chem., 51:6421-6431. An excess amount of the respective test compound was added into water, followed by sonication for 5 minutes. The resultant mixture was stirred at ambient temperature (25±0.1° C.) overnight. Centrifugation at 4000 rpm and 25° C. was conducted for 5 minutes. Absorbance of the sample of the respective test compound was measured at 315-420 nm using a UV-VIS spectrophotometer (JASCO UV-Visible V570). For each test compound, a standard curve was generated by plotting concentrations of standard solutions and the corresponding absorbances. The absorbance of the sample of each test compound was then converted to solubility in water (μg/mL) using the corresponding standard curve.

[2] = tested on: SF-268 (central nervous system carcinoma cell); assay: MTT antiproliferative assay (cell growth %, GI50), SF-268; assay type: cell-based; design: Cell growth (%) SF-268: unit of the concentration uncertain; conditions: for SI SF-268: GI50 MRC-5 / GI50 SF-268; for GI50: Homo sapiens; for Cell growth (%) SF-268: 48 hours, MTT
Method: (§1) Antiproliferative activities of the compounds of this invention were evaluated substantially according to the method as described in Tseng, C. […] The cells were treated with the test compounds, i.e., the compounds of this invention (in dimethylsulfoxide (DMSO)), or DMSO for 48 hours.
(§2) Before and after the treatment with the test compounds or DMSO, 3-(4,5-dimethylthiazol-2-yl)-2,5-diphenyltetrazolium bromide (MTT, 2 mg/mL, 100 μL) was added to each of the cultures, followed by cultivation for 2 hours. The resultant formazan was dissolved by the addition of DMSO. Absorbance at 570 nm (OD570) was measured using a microtiter plate reader (Dynex MRX-II).
(§3) Determination of GI50 was conducted thrice for each test compound. GI50 is expressed as mean±SD.

[3] = tested on: NCI-H460 (non-small cell lung carcinoma cell); assay: MTT antiproliferative assay (cell growth %, GI50), NCI-H460; assay type: cell-based; design: Cell growth (%) NCI-H460: unit of the concentration uncertain; conditions: for SI NCI-H460: GI50 MRC-5 / GI50 NCI-H460; for activity at 4000 µg/mL / activity at 20000 µg/mL / GI50: Homo sapiens; for activity at 4000 µg/mL: 4 mg/ml; for activity at 4000 µg/mL / activity at 20000 µg/mL / Cell growth (%) NCI-H460: 48 hours, MTT; for activity at 20000 µg/mL: 20 mg/ml
Method: as §1, §2, §3

[4] = tested on: MRC-5 (human lung fibroblast cell); assay: GI50 determination on normal cell line MRC-5; assay type: cell-based
Method: as §1, §2, §3

[5] = tested on: MCF-7 (breast cancer cell); assay: MTT antiproliferative assay (cell growth %, GI50), MCF-7; assay type: cell-based; design: Cell growth (%) MCF-7: unit of the concentration uncertain; conditions: for SI MCF-7: GI50 MRC-5 / GI50 MCF-7; for activity at 4000 µg/mL / activity at 20000 µg/mL / GI50: Homo sapiens; for activity at 4000 µg/mL: 4 mg/ml; for activity at 4000 µg/mL / activity at 20000 µg/mL / Cell growth (%) MCF-7: 48 hours, MTT; for activity at 20000 µg/mL: 20 mg/ml
Method: as §1, §2, §3

[6] = Single-dose pharmacokinetic analysis in CD-1 mice; assay type: in vivo
Method: CD-1 mice were divided into two groups. The first group of mice (n=9) were used to assess the singe-dose pharmacokinetics of the test compounds after intravenous administration, and the second group of mice (n=9) were utilized to assess the singe-dose pharmacokinetics of the test compounds after oral administration. All of the mice were fasted from 4 hours before the administration of the test compounds until 4 hours after the administration of the test compounds.
The assessment for singe-dose pharmacokinetics of the test compounds after intravenous administration was performed as follows. The first group of mice were further randomly divided into three subgroups including compound 13a group (n=3), compound 14a group (n=3), and compound 1 group (n=3). Compounds 13a, 14a, 1 (in polyethylene glycol 400/ethanol/water (30/5/65, v/v/v)) were respectively administered to the mice in compound 13a group, compound 14a group, and compound 1 group at a dose of 2 mg/kg via tail vein injection. Blood samples (0.25 mL) were collected from the mice by virtue of cardiac puncture right before the intravenous administration, and at 2 min, 5 min, 15 min, 30 min, 1 hr, 1.5 hr, 2 hr, 4 hr, 6 hr, 9 hr, 24 hr, and 27 hr after the intravenous administration.
The assessment for singe-dose pharmacokinetics of the test compounds after oral administration was conducted as follows. The second group of mice were further randomly divided into three subgroups including compound 13a group (n=3), compound 14a group (n=3), and compound 1 group (n=3). Compounds 13a, 14a, 1 (in 0.5% methylcellulose) were respectively administered to the mice in compound 13a group, compound 14a group, and compound 1 group at a dose of 20 mg/kg via tube feeding. Blood samples (0.25 mL) were collected from the mice by virtue of cardiac puncture right before the oral administration, and at 15 min, 30 min, 1 hr, 1.5 hr, 2 hr, 4 hr, 6 hr, 9 hr, 24 hr, and 27 hr after the oral administration.
Each of the blood samples was placed in a 0.5 mL Microtainer® tube containing anticoagulant EDTA-K2, followed by mixing evenly. Centrifugation at 7000 g and 4° C. was conducted for 5 minutes. Plasma was collected and was mixed uniformly with a proper amount of acetonitrile, followed by centrifugation. The resultant supernatant was acquired, and was injected into a reversed-phase Biosil ODS column so as to determine the concentration of the respective test compound in plasma (i.e., the plasma concentration of the respective test compound) using a LC-MS/MS system (Waters 2795 LC and Micromass Quattro Ultima). The singe-dose pharmacokinetic parameters of the respective test compound were calculated from the obtained concentration of the respective test compound in plasma (i.e., the obtained plasma concentration of the respective compound) at different time points using WinNonlin Standard Program (version 3.1, Pharsight Corp.)

[7] = SF-268, mean±SD, read-out: GI50 SF-268
[8] = NCI-H460, mean±SD, read-out: GI50 NCI-H460
[9] = MRC5, normal cell line, mean±SD, read-out: GI50 MRC-5
[10] = MCF7, mean±SD, read-out: GI50 MCF-7
[11] = intravenous administration, 2 mg/kg

Structure (SMILES) | Solubility in water [1] | SI SF-268 [2] | GI50 [2, 7] | SI NCI-H460 [3] | activity at 4000 µg/mL ([3]; NCI-H460) | activity at 20000 µg/mL ([3]; NCI-H460) | GI50 [3, 8] | GI50 [4, 9] | SI MCF-7 [5] | activity at 4000 µg/mL ([5]; MCF7) | activity at 20000 µg/mL ([5]; MCF7) | GI50 [5, 10] | further results
C/C(=N\OCCCN)c1ccc(Nc2c3ccccc3nc3occc23)cc1 [Compound 13c, (E)-1-(4-(furo[2,3-b]quinolin-4-ylamino)phenyl)ethanone O-3-aminopropyl oxime] | 58 µg/mL (≈ 155 µM) | 5.71 | 7.53 ± 0.41 µM | 6.07 | 22% | -2% | 7.08 ± 0.67 µM | 43 ± 0.86 µM | 3.73 | 52% | -3% | 11.52 ± 0.02 µM | 
COc1ccc2c(Nc3ccc(/C(C)=N/OCCN)cc3)c3c(Cl)coc3nc2c1 [Compound 16a, (E)-1-(4-(3-Chloro-7-methoxyfuro[2,3-b]quinolin-4-ylamino)phenyl)ethanone O-2-aminoethyl oxime] | 17 µg/mL (≈ 40 µM) | 6.34 | 7.48 ± 0.366 µM | 12.30 | 13% | 3% | 3.86 ± 0.13 µM | 47.46 ± 0.38 µM | 1.28 | 66% | -1% | 36.93 ± 0.31 µM | 
COc1ccc2c(Nc3ccc(/C(C)=N/OCCCN(C)C)cc3)c3c(Cl)coc3nc2c1 [Compound 16d, (E)-1-(4-(3-Chloro-7-methoxyfuro[2,3-b]quinolin-4-ylamino)phenyl)ethanone O-3-(dimethylamino) propyl oxime] |  |  |  |  |  |  |  |  |  |  |  |  | Cell growth (%) SF-268 ([2]; 4 (unit uncertain)): 103%; Cell growth (%) SF-268 ([2]; 20 (unit uncertain)): 1%; Cell growth (%) NCI-H460 ([3]; 4 (unit uncertain)): 66%; Cell growth (%) NCI-H460 ([3]; 20 (unit uncertain)): 4%; Cell growth (%) MCF-7 ([5]; 4 (unit uncertain)): 66%; Cell growth (%) MCF-7 ([5]; 20 (unit uncertain)): 1%
C/C(=N\OCCN)c1ccc(Nc2c3ccccc3nc3occc23)cc1.Cl [Hydrochloride salt of 13a, hydrochloride salt of (E)-1-(4-(furo[2,3-b]quinolin-4-ylamino)phenyl)ethanone O-2-aminoethyl oxime] | 1049 µg/mL |  |  |  |  |  |  |  |  |  |  |  | Solubility in water relative to compound 13a ([1]; fold versus compound 13a): about 17 times
COc1cccc2c1C(=O)c1c(O)c3c(c(O)c1C2=O)C[C@@](O)(C(C)=O)C[C@@H]3O[C@H]1C[C@H](N)[C@H](O)[C@H](C)O1 [daunorubicin, reference compound] |  | 1.47 |  | 2.32 |  |  |  |  | 0.17 |  |  |  | GI50 ([2]; SF-268, read-out: GI50 SF-268): 0.6 ± 0.02 µM; GI50 ([3]; NCI-H460, read-out: GI50 NCI-H460): 0.38 ± 0.04 µM; GI50 ([4]; MRC5, read-out: GI50 MRC-5): 0.88 ± 0.11 µM; GI50 ([5]; MCF7, read-out: GI50 MCF-7): 5.03 ± 0.05 µM
CC[C@@]1(O)C(=O)OCc2c1cc1n(c2=O)Cc2cc3ccccc3nc2-1 [camptothecin, reference compound] |  | 4.68 | 0.19 ± 0.006 µM | 29.67 |  |  | 0.03 ± 0.003 µM | 0.89 ± 0.9 µM | 0.08 |  |  | 11.1 ± 0.61 µM | 
COc1ccc2c(Nc3ccc(/C(C)=N/OCCN)cc3)c3ccoc3nc2c1 [Compound 15a, (E)-1-(4-(7-Methoxyfuro[2,3-b]quinolin-4-ylamino)phenyl)ethanone O-2-aminoethyl oxime] | 16 µg/mL (≈ 41 µM) | 5.53 | 8.15 ± 0.44 µM | 11.39 | 14% | 11% | 3.96 ± 0.14 µM | 45.11 ± 0.31 µM | 1.24 | 71% | 8% | 36.23 ± 0.05 µM | 
C/C(=N\OCCCN)c1ccc(Nc2c3ccccc3nc3occ(Cl)c23)cc1 [Compound 14c, (E)-1-(4-(3-Chlorofuro[2,3-b]quinolin-4-ylamino)phenyl)ethanone O-3-aminopropyl oxime] | 36 µg/mL (≈ 88 µM) | 1.46 | 32.5 ± 1.25 µM | 2.90 | 28% | 0% | 16.2 ± 0.36 µM | 47.1 ± 2.27 µM | 4.98 | 46% | 0% | 9.46 ± 0.23 µM | 
COc1ccc2c(Nc3ccc(/C(C)=N/OCCN(C)C)cc3)c3c(Cl)coc3nc2c1 [Compound 16b, (E)-1-(4-(3-Chloro-7-methoxyfuro[2,3-b]quinolin-4-ylamino)phenyl)ethanone O-2-(dimethylamino) ethyl oxime] |  |  |  |  |  |  |  |  |  |  |  |  | Cell growth (%) SF-268 ([2]; 4 (unit uncertain)): 102%; Cell growth (%) SF-268 ([2]; 20 (unit uncertain)): −1%; Cell growth (%) NCI-H460 ([3]; 4 (unit uncertain)): 74%; Cell growth (%) NCI-H460 ([3]; 20 (unit uncertain)): −1%; Cell growth (%) MCF-7 ([5]; 4 (unit uncertain)): 51%; Cell growth (%) MCF-7 ([5]; 20 (unit uncertain)): −2%
C/C(=N\OCCN)c1ccc(Nc2c3ccccc3nc3occ(Cl)c23)cc1 [Compound 14a, (E)-1-(4-(3-Chlorofuro[2,3-b]quinolin-4-ylamino)phenyl)ethanone O-2-aminoethyl oxime] | 25 µg/mL (≈ 63.3 µM) | 5.15 | 9.14 ± 0.72 µM | 66.25 | 32% | -1% | 0.71 ± 0.02 µM | 47 ± 1.21 µM | 1.52 | 59% | -1% | 31.01 ± 0.03 µM | AUC(0-inf) [6, 11]: 409.8 ng·h/mL; CL [6, 11]: 81.3 mL/min/kg; MRT [6, 11]: 6.1 h; Vss [6, 11]: 30.0 L/kg; Vz [6, 11]: 103.8 L/kg; Cmax ([6]; intravenous administration, 2 mg/kg, extrapolated plasma concentration at 0 hr): 3601 ng/mL; t1/2 ([6]; intravenous administration, 2 mg/kg, from 0.5-1.5 hr (compd. 1) or 9-27 hr (13a, 14a)): 14.7^d hr; Bioavailability ([6]; oral 20 mg/kg versus intravenous 2 mg/kg): 5.9%; AUC(0-inf) ([6]; oral administration, 20 mg/kg): 242.6 ng·h/mL; Cmax ([6]; oral administration, 20 mg/kg): 114.3 ng/mL; MRT ([6]; oral administration, 20 mg/kg): 2.8 h; Time after which compound was unable to be detected in plasma ([6]; oral administration, 20 mg/kg): 9 h; Tmax ([6]; oral administration, 20 mg/kg): 1.0 h; t1/2 ([6]; oral administration, 20 mg/kg, from 2-6 hr (compd. 1), 2-24 hr (13a), 2-9 hr (14a)): 1.7^f hr
